Laboratory results: US20040057908A1, “Oral compositions and use thereof” (priority 2003, published 2004)
Where “and” joins values, the source holds several entries; their conditions need not be identical. Equal values may be shown once.

Key:
GTF B [1] = target: T1, GTF B (Streptococcus mutans serotype c, UniProt P08987); test: GTF activity in solution, GTF B; type: biochemical; settings: read-out: GTF B sol. % of Inhib.
T1 construct: made in house; host or cells: Streptococcus milleri KSB8 (culture supernatant)
Method: (§1) Glucosyltransferase activity was measured by the incorporation of [^14C-glucose] from labeled sucrose (NEN Research Products, Boston, Mass.) into glucans (Germaine et al., 1974; Venkitaraman et al., 1995). The GTF enzyme added to each sample for all assays was equivalent to the amount required to incorporate 1.0-1.5 μmol of glucose over the four hours reaction (1.0-1.5 units).
(§2) For solution assays, purified GTF B, C, D and Ss were mixed with a two-fold dilution series of the test compounds (concentration ranging from 125 to 500 μM) and incubated with [^14C-glucose]-sucrose substrate (0.2 μCi/ml) (200.0 mmol/l sucrose, 40 μmol/l dextran 9000, 0.02% sodium azide in adsorption buffer—50 mM KCl, 1.0 mM KPO4, 1.0 mM CaCl2, 0.1 mM MgCl2−pH=6.5) to reach a final concentration of 100 mmol/l sucrose (200 μl final volume). For the control, the same reaction was carried out, where ethanol:DMSO (final concentration of 7.5% and 1.25%, v/v) or ethanol (final concentration of 5%, v/v) replaced the test agent solutions. The samples were incubated 37° C. with rocking for 4 h. After incubation, ice-cold ethanol (1.0 ml) was added and the samples were stored for 18 h, 4° C. for precipitation of glucans. Radiolabeled glucan was determined by scintillation counting (Germaine et al., 1974; Venkitaraman et al., 1995).

GTF B [2] = target: T1, GTF B; test: GTF activity adsorbed onto saliva-coated hydroxyapatite (sHA) surface, GTF B; type: biochemical
Method: as §1
For surface assays, the GTFs were adsorbed to hydroxyapatite beads coated with clarified whole saliva (free of GTF activity), as detailed elsewhere (Koo et al., 2000c; Schilling and Bowen, 1988, Venkitaraman et al., 1995). The saliva-coated hydroxyapatite (sHA) beads were exposed to sufficient enzyme to saturate the surface as determined experimentally. Following the adsorption of the enzyme, the beads were washed 3 times with buffer to remove the loosely bound material and exposed to 300 μl of the two-fold dilution series of test compounds (or control) for 30 min. at the same concentrations described above. The beads were washed and exposed to 300 μl [^14C-glucose]-sucrose substrate (100.0 mmol/l sucrose, final concentration). The radiolabeled glucan formed was collected and quantified by scintillation counting (Germaine et al., 1974; Venkitaraman et al., 1995). All the solution and surface assays were done in quadruplicate in at least 3 different experiments.

GTF D = target: T2, GTF D (Streptococcus mutans serotype c, UniProt P49331); test: GTF activity in solution, GTF D; type: biochemical; settings: read-out: GTF D sol. % of Inhib.
T2 construct: made in house; host or cells: Streptococcus milleri NH5 (culture supernatant)
Method: as §1, §2

[3] = system: Mutans Streptococci Strains; test: MIC and MBC, broth dilution, all strains stated together; type: cell-based, S. mutans (GS-5 and UA159) and S. sobrinus 6715; settings: Streptococcus mutans; all strains tested (S. mutans GS-5, UA159, S. sobrinus 6715); read-out: MIC
Method: The minimum inhibitory concentration (MIC) and minimum bactericidal concentration (MBC) were determined for each test compound according to the National Committee for Clinical Laboratory Standards guidelines (Tentative standard M26-T, 1992; NCCLS Publication No. M7-A5, 2000) and Koo et al. (2000b). The broth microdilution and macrodilution methods (in TSB) were used for the antibacterial tests. The starting inoculum was 5×10^5 CFU/ml and the concentrations of test compounds ranged from 15.6 to 500 μM (two-fold dilutions). The MICs and MBCs were determined in quadruplicate in at least 3 different experiments.

[4] = system: Streptococcus sobrinus 6715; test: Rat caries experiment: S. sobrinus recovered from the jaws; type: in vivo, Sprague Dawley rats; settings: rats, topical twice daily, five weeks; 1.33 mM (fluoride 250 ppm); means (SD)
Method: Seven litters of ten female Sprague Dawley rats aged 14 days were purchased with their dams from Charles River (Kingston, N.Y., USA). […] The experiment proceeded for five weeks, at which time the animals were killed by CO2 asphyxiation. The lower left jaw was aseptically dissected, suspended in 5.0 mL of sterile saline solution, and sonicated (three 10-second pulses with 5-second intervals at 30 watts, Branson Sonifier 450). The suspension was plated on mitis salivarius agar plus streptomycin to estimate S. sobrinus population and on blood agar to determine total cultivable flora (TCF). […] The determination of caries score was blind by codification of the jaws and was done by 1 calibrated examiner. […] The level of significance was 5%.

[5] = read-out: GTF B surf. % of Inhib.

T1 sequence (P08987 35-1476): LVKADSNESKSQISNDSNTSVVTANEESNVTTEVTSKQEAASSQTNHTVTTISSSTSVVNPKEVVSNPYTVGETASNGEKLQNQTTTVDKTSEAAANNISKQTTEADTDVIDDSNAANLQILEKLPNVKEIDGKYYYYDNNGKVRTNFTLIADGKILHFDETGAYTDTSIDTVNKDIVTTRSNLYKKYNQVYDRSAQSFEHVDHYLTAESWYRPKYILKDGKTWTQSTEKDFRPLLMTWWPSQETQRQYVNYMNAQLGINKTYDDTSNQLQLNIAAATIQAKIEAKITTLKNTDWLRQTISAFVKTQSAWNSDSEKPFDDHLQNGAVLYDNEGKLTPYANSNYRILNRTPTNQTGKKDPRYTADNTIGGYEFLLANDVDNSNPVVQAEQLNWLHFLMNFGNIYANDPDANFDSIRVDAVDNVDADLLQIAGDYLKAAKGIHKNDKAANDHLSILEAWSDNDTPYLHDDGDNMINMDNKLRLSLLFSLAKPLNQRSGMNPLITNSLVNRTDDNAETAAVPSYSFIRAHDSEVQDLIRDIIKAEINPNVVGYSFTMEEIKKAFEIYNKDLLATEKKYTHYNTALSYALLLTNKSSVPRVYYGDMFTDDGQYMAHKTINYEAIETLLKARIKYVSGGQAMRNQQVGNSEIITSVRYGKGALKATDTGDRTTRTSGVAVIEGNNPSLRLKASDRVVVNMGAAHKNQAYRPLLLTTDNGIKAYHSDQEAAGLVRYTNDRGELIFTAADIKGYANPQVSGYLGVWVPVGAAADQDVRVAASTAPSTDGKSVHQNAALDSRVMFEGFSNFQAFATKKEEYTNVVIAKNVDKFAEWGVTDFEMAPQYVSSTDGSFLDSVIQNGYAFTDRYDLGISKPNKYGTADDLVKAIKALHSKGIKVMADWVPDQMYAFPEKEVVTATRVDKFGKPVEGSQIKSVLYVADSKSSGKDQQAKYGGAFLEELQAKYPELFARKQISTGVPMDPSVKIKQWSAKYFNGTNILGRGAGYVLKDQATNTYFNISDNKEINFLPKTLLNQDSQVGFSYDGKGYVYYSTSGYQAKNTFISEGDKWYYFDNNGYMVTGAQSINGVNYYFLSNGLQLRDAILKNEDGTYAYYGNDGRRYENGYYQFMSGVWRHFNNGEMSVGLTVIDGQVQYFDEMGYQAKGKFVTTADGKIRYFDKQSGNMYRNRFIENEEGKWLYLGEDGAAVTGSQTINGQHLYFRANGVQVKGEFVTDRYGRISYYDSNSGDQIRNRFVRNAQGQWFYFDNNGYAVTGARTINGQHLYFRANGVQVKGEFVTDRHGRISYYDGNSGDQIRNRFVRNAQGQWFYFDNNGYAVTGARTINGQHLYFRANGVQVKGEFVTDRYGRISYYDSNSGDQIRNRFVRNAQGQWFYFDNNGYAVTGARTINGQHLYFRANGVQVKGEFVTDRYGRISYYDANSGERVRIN
T2 sequence (P49331 whole entry): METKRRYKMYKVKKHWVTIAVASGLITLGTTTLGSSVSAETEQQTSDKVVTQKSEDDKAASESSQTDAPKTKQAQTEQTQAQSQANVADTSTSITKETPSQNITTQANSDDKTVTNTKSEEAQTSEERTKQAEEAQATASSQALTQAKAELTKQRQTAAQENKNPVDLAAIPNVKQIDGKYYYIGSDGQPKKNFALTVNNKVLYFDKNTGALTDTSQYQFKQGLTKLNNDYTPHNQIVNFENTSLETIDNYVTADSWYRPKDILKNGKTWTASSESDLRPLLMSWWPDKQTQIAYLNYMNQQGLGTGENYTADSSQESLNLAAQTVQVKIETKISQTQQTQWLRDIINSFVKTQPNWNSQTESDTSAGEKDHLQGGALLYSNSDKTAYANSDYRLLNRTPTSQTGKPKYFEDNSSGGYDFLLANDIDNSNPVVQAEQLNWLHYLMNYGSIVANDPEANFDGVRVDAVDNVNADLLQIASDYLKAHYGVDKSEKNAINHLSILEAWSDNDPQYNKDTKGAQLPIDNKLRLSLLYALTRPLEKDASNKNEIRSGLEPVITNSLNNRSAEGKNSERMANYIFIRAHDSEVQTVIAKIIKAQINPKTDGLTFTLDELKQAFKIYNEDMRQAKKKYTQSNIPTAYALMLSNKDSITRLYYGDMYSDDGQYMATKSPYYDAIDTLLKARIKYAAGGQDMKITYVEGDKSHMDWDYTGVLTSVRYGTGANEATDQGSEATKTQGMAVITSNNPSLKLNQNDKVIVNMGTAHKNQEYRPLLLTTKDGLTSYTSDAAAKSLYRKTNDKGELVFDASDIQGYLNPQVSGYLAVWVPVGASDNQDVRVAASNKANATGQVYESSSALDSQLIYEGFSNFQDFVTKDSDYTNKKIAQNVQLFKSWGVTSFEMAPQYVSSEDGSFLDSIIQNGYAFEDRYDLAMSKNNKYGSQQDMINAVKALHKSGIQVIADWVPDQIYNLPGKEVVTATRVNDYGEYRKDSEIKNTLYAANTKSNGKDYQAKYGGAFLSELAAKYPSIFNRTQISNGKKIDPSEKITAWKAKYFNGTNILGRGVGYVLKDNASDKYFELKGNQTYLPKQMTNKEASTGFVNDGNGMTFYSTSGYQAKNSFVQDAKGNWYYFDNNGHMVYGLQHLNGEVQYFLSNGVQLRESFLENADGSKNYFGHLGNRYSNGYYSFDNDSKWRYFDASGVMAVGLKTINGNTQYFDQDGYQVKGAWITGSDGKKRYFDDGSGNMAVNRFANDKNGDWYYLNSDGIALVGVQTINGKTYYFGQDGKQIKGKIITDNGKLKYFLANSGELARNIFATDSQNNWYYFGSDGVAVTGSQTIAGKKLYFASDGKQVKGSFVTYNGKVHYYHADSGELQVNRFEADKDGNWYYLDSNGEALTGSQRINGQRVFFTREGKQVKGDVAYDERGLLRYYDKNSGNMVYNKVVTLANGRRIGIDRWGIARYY

Question: For `O=c1cc(-c2ccc(O)cc2)oc2cc(O)cc(O)c12` [Apigenin], which inhibition at 125 µM (GTF B [1]) is on record?
Answer: Its inhibition at 125 µM is 78.3%.

Question: And the inhibition at 250 µM (GTF B [1])?
Answer: Its inhibition at 250 µM is 92.8%.

Question: What about the inhibition at 500 µM (GTF B [1]) of the same molecule?
Answer: Its inhibition at 500 µM is 94.3%.

Question: What about the IC50 (GTF B [2]; IC50 for surface-adsorbed GTF B, surface-adsorbed) of the same molecule?
Answer: Its IC50 is 478 µM and 474 µM.

Question: And the inhibition at 125 µM (GTF B [2]; [5])?
Answer: The inhibition at 125 µM was 31.8%.

Question: What about the inhibition at 250 µM (GTF B [2]; [5]) of the same molecule?
Answer: Its inhibition at 250 µM is 40%.

Question: What about the inhibition at 500 µM (GTF B [2]; [5]) of the same molecule?
Answer: Its inhibition at 500 µM is 55.5%.

Question: And the inhibition at 125 µM (GTF D)?
Answer: Its inhibition at 125 µM is 70.8%.

Question: What about the inhibition at 250 µM (GTF D) of the same molecule?
Answer: Its inhibition at 250 µM is 90.2%.

Question: What about the inhibition at 500 µM (GTF D) of the same molecule?
Answer: The inhibition at 500 µM was 95%.

Question: And the MIC [3]?
Answer: Its MIC is greater than 500 µM.

Question: What about the “Infection by S. sobrinus, %” value [4] of the same molecule?
Answer: Its value is 40.6 (14.2)^ab %.
